From PMC6862080, “Blood Compatibility—An Important but Often Forgotten Aspect of the Characterization of Antimicrobial Peptides for Clinical Application” (International Journal of Molecular Sciences, 2019)

Tests used:
LPS from P. aeruginosa = assay: Endotoxin inactivation in human serum, chromogenic LAL test (P. aeruginosa LPS); assay type: biochemical; details: 500 ng/mL peptide, 5 ng/mL LPS, n = 3
Protocol: (§1) The LPS neutralization study in serum was conducted using a chromogenic Limulus Amebocyte Lysate (LAL) test (Charles River Laboratories, MA, USA). The LAL test is the most established method for quantifying LPS. This method uses amebocyte lysate from Limulus polyphemus, wherein the presence of LPS triggers a defense mechanism that induces coagulation. The LAL test is used successfully for detection of LPS in a wide variety of industrial, pharmaceutical, and research applications, such as water supplies, parenteral fluids, drugs for intravenous administration, and certain biologic fluids (e.g., cerebrospinal fluid). Therefore, serum, which was obtained from freshly drawn blood, was spiked with 500 ng/mL AMPs, PMB or LL-37 before adding 5 ng/mL LPS from E. coli or P. aeruginosa. As positive and negative controls, native serum with and without LPS was used, respectively. Endotoxin activity was measured using the LAL assay according to the manufacturer’s specifications.

erythrocyte membranes [1] = assay: Hemolysis in whole blood (Kahn method); assay type: cell-based, human; details: citrate anticoagulated whole blood, 60 min 37 °C, Kahn method, n = 3, control 3.7 ± 1.9
Protocol: (§2) Hemolysis was tested with fresh citrate anticoagulated blood from healthy volunteers as well as with blood cells which were suspended in phosphate buffered saline (10 mM pH 7.4). Afterwards, 100 μL AMP solution was added to 500 μL blood to finally achieve AMP concentrations of 8, 32, and 128 μg/mL. As the negative and positive control, 100 μL PBS buffer and 100 μL 12% Triton-X buffer was added to 500 μL blood, respectively. After incubation on an orbital shaker for 60 min at 37 °C, the cells were removed by centrifugation and 100 μL of the supernatant were transferred to a 96 well microplate for hemolysis measurement. The hemolysis was calculated from the extinction at the wavelengths 562, 578, and 598 nm with a Synergy 2 microplate reader (BioTek, Winooski, VT, USA) according to the method published by Kahn.

[2] = system: LPS-stimulated leukocytes; details: whole blood, PMB serum level between 100 to 200 ng; cited from earlier work
Protocol: Past studies have shown that a PMB serum level between 100 to 200 ng reduces the cytokine secretion of LPS-stimulated leukocytes up to 90% in whole blood. PMB directly interacts with the conserved lipid A region of the LPS molecule. […] In this study, it was tested whether the lactoferrin based peptides are able to form a complex with LPS similar to PMB, which would lead to a reduction of the inflammatory effect of LPS. The results (Figure 3) indicate that in c ...

plasmatic coagulation [3] = assay: Clotting batch test in citrate plasma; assay type: biochemical, human; details: citrate plasma, 37 °C, 60 min, turbidity 600 nm, fibrinogen and D-Dimer; note: key: −: no clotting observed, no D-dimers and normal fibrinogen level; +: clotting observed, high D-dimer level, no detectable fibrinogen serum level
Protocol: Since the acylated LF11-322 peptides cause plasmatic coagulation of citrate anticoagulated plasma, separate clotting experiments were performed with this peptide group. The aim was to check whether the coagulation activation is dependent on the AMP concentration and on the acyl chain length. […] Plasma without additives served as the negative control, whereas plasma spiked with CaCl2/MgCl2 (500/250 mM) solution to restore the physiological calcium and magnesium level in plasma was used as the positive control. Incubation was performed at 37 °C for 60 min. […] In order to ensure that the measured turbidity of the plasma is caused by fibrin formation, the fibrinogen and D-Dimer concentrations were additionally determined. During plasmatic clotting, the fibrinogen level decreases and the D-Dimer level in serum increases. Both were analyzed on a Sysmex CA560 with the corresponding reagents (Siemens Healthineers, Erlangen, Germany).

plasmatic coagulation [4] = assay: Activation of the clotting cascade in heparinized plasma; details: heparinized (0.5 IU/mL) plasma, 128 μg/mL, 37 °C, 120 min, turbidity at 600 nm
Protocol: (§3) Plasma spiked with MES buffer without AMP was used as the negative control. […] Samples were incubated at 37 °C for 120 min. Coagulation was determined by turbidity measurement at 600 nm using a well plate reader.

platelets = assay: SEM imaging of platelet morphology in PRP; assay type: cell-based, human; details: 128 μg/mL, 2 h, 37 °C
Protocol: Since it was observed that some AMPs are able to activate the plasmatic coagulation system of heparinized and citrate anticoagulated blood, the influence of this peptides on platelets was investigated. For this purpose, fresh heparinized and citrated blood were collected from three donors. The blood was centrifuged at 500 g for 5 min and platelet rich plasma (PRP) was obtained. The PRP was incubated at 37 °C for 2 h with 128 μg/mL AMP, PMB, and LL-37. PRP without any additives served as the control. After incubation, the platelet number was determined by a Sysmex Automated Hematology Analyzer KX-21-N (Kobe, Japan). In addition, the PRP samples were prepared for SEM to visualize the morphology of the thrombocytes. After incubation, 10 μL PRP were diluted with 990 μL PBS (0.01 M) and filtered through a 0.2 μm membrane (Membrane Filter Isopore 0.2 μm, Merck, Darmstadt, Germany). The platelets were retained on the membrane, washed with 1 mL PBS, and fixed with 1 mL glutaraldehyde solution (2.5% glutaraldehyde in physiological saline solution). After an incubation time of 60 min, the samples were dehydrated using a series of ethanol (30%, 50%, 60%, 70%, 80%, 90%, and 100%). Afterwards the samples were dried overnight at RT, sputtered with gold and visualized with a scanning electron microscope (FLEXSem 1000, Hitachi, Japan).

plasmatic coagulation [5] = assay: Activation of the clotting cascade in citrated plasma; details: citrated (17 mM) plasma, 128 μg/mL, 37 °C, 120 min, turbidity at 600 nm
Protocol: as §3

E. coli (ATCC 11303) = assay: microbe, parasite or virus in culture; assay type: cell-based; details: DIN 58940-8, Müller-Hinton broth, overnight 37 °C, turbidity 620 nm
erythrocyte membranes [6] = assay: Hemolysis in RBC suspended in PBS (Kahn method); assay type: cell-based, human; details: 60 min 37 °C, Kahn method, n = 3, control 8.5 ± 4.7
Protocol: as §2

LPS from E. coli = assay: Endotoxin inactivation in human serum, chromogenic LAL test (E. coli LPS); assay type: biochemical; details: 500 ng/mL peptide, 5 ng/mL LPS, n = 3
Protocol: as §1

E. coli and S. aureus = assay: Scanning electron microscopy of bacterial cell wall damage; assay type: cell-based; details: 128 μg/mL, overnight culture at 37 °C, 2 × 10^5–8 × 10^5 CFU/mL
Protocol: In order to verify and to visualize the impact of AMPs on the bacterial membrane, electron microscopy was conducted. Therefore, bacterial suspensions of E. coli and S. aureus with a concentration of 2 × 10^5–8 × 10^5 CFU/mL were incubated with 128 μg/mL of one AMP (LF11-322-C8) and PMB in a microplate over night at 37 °C. After overnight culture, the bacteria were prepared for SEM. To achieve this, the bacteria suspensions were filtered through a sterile filter (Swinnex filter holders, Merck Millipore, Burlington, MA, USA). The filters with the collected bacteria were than washed with PBS (10 mM, pH 7.2) and fixed with a 2.5% glutaraldehyde solution (Carl Roth, Karlsruhe, Deutschland). The fixed specimens were gradually dehydrated by increasing ethanol solutions (10% to 100%) and sputtered with gold (Q150R ES Sputter Coater, Quorum Technologies Ltd., East Sussex, UK) prior to examination with a scanning electron microscope (FlexSEM 1000, Hitachi, Tokyo, Japan).

S. aureus (ATCC 12600) = assay: microbe, parasite or virus in culture; assay type: cell-based; details: DIN 58940-8, Müller-Hinton broth, overnight 37 °C, turbidity 620 nm
[7] = PBS pH 7.4, inoculum 2 × 10^5–8 × 10^5 CFU/mL

Substance: Polymyxin B [PMB, reference compound]
- Reduction of endotoxin activity of P. aeruginosa LPS (LPS from P. aeruginosa): 74 ± 7%
- Free Hemoglobin, BLOOD, 8 μg/mL (erythrocyte membranes [1]; peptide conc. 8 μg/mL): 3.5 ± 2.8 mg/dL
- Free Hemoglobin, BLOOD, 32 μg/mL (erythrocyte membranes [1]; peptide conc. 32 μg/mL): 3.7 ± 1.4 mg/dL
- Free Hemoglobin, BLOOD, 128 μg/mL (erythrocyte membranes [1]; peptide conc. 128 μg/mL): 2.6 ± 3.9 mg/dL
- Reduction of cytokine secretion of LPS-stimulated leukocytes [2]: up to 90%
- Clotting of citrate plasma, Peptide Concentration 8 μg/mL (plasmatic coagulation [3]): −
- Clotting of citrate plasma, Peptide Concentration 32 μg/mL (plasmatic coagulation [3]): −
- Clotting of citrate plasma, Peptide Concentration 128 μg/mL (plasmatic coagulation [3]): −
- Clotting of citrate plasma, Peptide Concentration 256 μg/mL (plasmatic coagulation [3]): −
- Plasma clot, Heparin Plasma (plasmatic coagulation [4]): −
- Platelet morphology by SEM, citrate anticoagulated PRP (in words) (platelets): morphologically intact platelets
- Plasma clot, Citrated Plasma (plasmatic coagulation [5]): −
- Minimal Inhibitory Concentration, E. coli, 4% HSA (E. coli (ATCC 11303); 4% human serum albumin): 4 µg/mL
- Minimal Inhibitory Concentration, E. coli, PBS + heparin (E. coli (ATCC 11303); PBS containing 5 IU/mL heparin): 4 µg/mL
- Minimal Inhibitory Concentration, E. coli, PBS (E. coli (ATCC 11303); [7]): 2 µg/mL
- Free Hemoglobin, RBC in PBS, 128 μg/mL (erythrocyte membranes [6]; blood cells suspended in PBS 10 mM pH 7.4, highest peptide conc.): 1.9 ± 0.2 mg/dL
- Free Hemoglobin, RBC in PBS, 8 μg/mL (erythrocyte membranes [6]; blood cells suspended in PBS 10 mM pH 7.4, peptide conc. 8 μg/mL): 14.9 ± 3.1 mg/dL
- Free Hemoglobin, RBC in PBS, 32 μg/mL (erythrocyte membranes [6]; blood cells suspended in PBS 10 mM pH 7.4, peptide conc. 32 μg/mL): 18.9 ± 11.2 mg/dL
- Reduction of endotoxin activity of E. coli LPS (LPS from E. coli): 63 ± 7%
- Lysis of bacteria cells seen by SEM (in words) (E. coli and S. aureus): not able to lyse S. aureus cells
- Minimal Inhibitory Concentration, S. aureus, 4% HSA (S. aureus (ATCC 12600); 4% human serum albumin): 64 µg/mL
- Minimal Inhibitory Concentration, S. aureus, PBS + heparin (S. aureus (ATCC 12600); PBS containing 5 IU/mL heparin): > 128 µg/mL
- Minimal Inhibitory Concentration, S. aureus, PBS (S. aureus (ATCC 12600); [7]): 8 µg/mL
